In US11485742B2, “2-azaspiro[3.4]octane derivatives as M4 agonists” (NOVARTIS AG, priority 2019, dated 2022):

Tests used:
[1] = target: T1, human cloned CHRM2 receptor (Homo sapiens, UniProt P08172); assay: CHRM2 Ca++ Flux Assay (M2_CHO cells, agonist mode); assay type: cell-based; settings: M2 CHO cells; for EC50: agonist mode, geometric mean if tested more than once, read-out: M2 FDSS EC50; for Emax: Percent Activity (PA) measured to EC100 of Carbachol, read-out: M2 FDSS PA %
T1 construct: expressed in transfected cells; host or cells: CHO-K1 (M2_CHO)
T1 sequence (P08172 1-466): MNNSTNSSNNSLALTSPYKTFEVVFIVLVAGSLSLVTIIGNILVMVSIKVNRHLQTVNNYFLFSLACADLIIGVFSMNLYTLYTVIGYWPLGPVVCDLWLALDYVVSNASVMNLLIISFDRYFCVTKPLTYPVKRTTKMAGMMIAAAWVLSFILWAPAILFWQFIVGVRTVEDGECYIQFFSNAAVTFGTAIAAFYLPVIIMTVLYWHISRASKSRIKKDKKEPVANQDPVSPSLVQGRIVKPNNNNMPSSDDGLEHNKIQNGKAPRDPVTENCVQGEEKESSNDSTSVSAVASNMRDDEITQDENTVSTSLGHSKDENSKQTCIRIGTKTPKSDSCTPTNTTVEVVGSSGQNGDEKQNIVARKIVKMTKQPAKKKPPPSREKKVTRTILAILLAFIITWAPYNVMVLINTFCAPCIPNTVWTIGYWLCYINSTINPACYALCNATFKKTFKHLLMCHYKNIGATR
How it was run: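 Agonist activity was expressed as percent of the carbachol EC100 response, fitted by four-parameter regression on triplicate wells, with geometric means across repeat runs. Calcium traces over 3 minutes came from dye-loaded M2_CHO cells (12K/well) pre-incubated 60 min in Ca/Mg-free HBSS with 20 mM HEPES, 2.5 mM probenecid and 20 μM ATP.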

[2] = target: T2, human cloned CHRM5 receptor (Homo sapiens, UniProt P08912); assay: CHRM5 Ca++ Flux Assay (M5_CHO cells, agonist mode); assay type: cell-based; settings: for Emax: Percent Activity (PA) measured to EC100 of Carbachol, read-out: M5 FDSS PA %; for EC50: agonist mode, geometric mean if tested more than once, read-out: M5 FDSS EC50
T2 construct: expressed in transfected cells; host or cells: CHO (M5_CHO)
T2 sequence (P08912 1-532): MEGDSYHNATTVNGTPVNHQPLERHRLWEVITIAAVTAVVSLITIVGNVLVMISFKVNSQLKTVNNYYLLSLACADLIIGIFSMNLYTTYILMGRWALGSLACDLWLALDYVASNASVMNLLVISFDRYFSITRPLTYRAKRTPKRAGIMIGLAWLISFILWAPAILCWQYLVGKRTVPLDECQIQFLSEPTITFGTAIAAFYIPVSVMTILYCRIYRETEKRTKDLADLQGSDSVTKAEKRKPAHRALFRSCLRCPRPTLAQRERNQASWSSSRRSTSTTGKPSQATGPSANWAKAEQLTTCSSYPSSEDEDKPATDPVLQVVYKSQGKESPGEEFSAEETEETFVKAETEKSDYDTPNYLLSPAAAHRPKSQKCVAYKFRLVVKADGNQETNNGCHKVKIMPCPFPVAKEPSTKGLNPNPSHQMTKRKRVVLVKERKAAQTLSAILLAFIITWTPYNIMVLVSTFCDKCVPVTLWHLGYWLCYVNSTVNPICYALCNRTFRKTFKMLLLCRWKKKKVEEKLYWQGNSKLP
How it was run: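 Agonist-mode calcium mobilisation: compounds, 11 concentrations in triplicate, applied to stable M3_CHO or M5_CHO cells loaded with Ca++ dye, fluorescence followed 3 min. Efficacy expressed against carbachol EC100; EC curves by four-parameter nonlinear regression, geometric mean across independent runs.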

SMILES: CCc1nnc(COc2ccc(F)cc2C2CCN([C@@H]3COC4(C3)CN(c3nnco3)C4)CC2)s1 [Example 2T, (S)-7-(4-(2-((5-ethyl-1,3,4-thiadiazol-2-yl)methoxy)-5-fluorophenyl)piperidin-1-yl)-2-(1,3,4-oxadiazol-2-yl)-5-oxa-2-azaspiro[3.4]octane]
- EC50 [1]: 41 nM
- Emax [1]: 44%
- Emax [2]: 0%
- EC50 [2]: 730 nM

SMILES: CC(C)(O)COc1ccc(F)cc1C1CCN([C@@H]2COC3(C2)CN(c2nnco2)C3)CC1 [Example 1U, (S)-1-(2-(1-(2-(1,3,4-oxadiazol-2-yl)-5-oxa-2-azaspiro[3.4]octan-7-yl)piperidin-4-yl)-4-fluorophenoxy)-2-methylpropan-2-ol]
- EC50 [1]: > 25000 nM
- Emax [1]: 0%
- Emax [2]: 0%
- EC50 [2]: > 25000 nM

SMILES: Fc1ccc(OCC2COC2)c(C2CCN([C@@H]3COC4(C3)CN(c3nnco3)C4)CC2)c1 [Example 2H, (S)-7-(4-(5-fluoro-2-(oxetan-3-ylmethoxy)phenyl)piperidin-1-yl)-2-(1,3,4-oxadiazol-2-yl)-5-oxa-2-azaspiro[3.4]octane]
- EC50 [1]: 309 nM
- Emax [1]: 60%
- Emax [2]: 0%
- EC50 [2]: > 25000 nM

SMILES: COc1cc(F)ccc1C1CCN([C@@H]2COC3(C2)CN(c2nnco2)C3)CC1 [Example 1S, (S)-7-(4-(4-fluoro-2-methoxyphenyl)piperidin-1-yl)-2-(1,3,4-oxadiazol-2-yl)-5-oxa-2-azaspiro[3.4]octane]
- EC50 [1]: 656 nM
- Emax [1]: 13%
- Emax [2]: 0%
- EC50 [2]: > 25000 nM

SMILES: COc1ccc(F)cc1C1CCN([C@@H]2COC3(C2)CN(c2nnco2)C3)CC1 [Example 1V, (S)-7-(4-(5-fluoro-2-methoxyphenyl)piperidin-1-yl)-2-(1,3,4-oxadiazol-2-yl)-5-oxa-2-azaspiro[3.4]octane]
- EC50 [1]: 598 nM
- Emax [1]: 35%
- Emax [2]: 0%
- EC50 [2]: > 25000 nM

SMILES: Fc1ccc(OCC2(F)COC2)c(C2CCN([C@@H]3COC4(C3)CN(c3nnco3)C4)CC2)c1 [Example 2J, (S)-7-(4-(5-fluoro-2-((3-fluorooxetan-3-yl)methoxy)phenyl)piperidin-1-yl)-2-(1,3,4-oxadiazol-2-yl)-5-oxa-2-azaspiro[3.4]octane]
- EC50 [1]: 214 nM
- Emax [1]: 62%
- Emax [2]: 0%
- EC50 [2]: > 25000 nM

SMILES: CC1(COc2ccc(F)cc2C2CCN([C@@H]3COC4(C3)CN(c3nnco3)C4)CC2)COC1 [Example 2K, (S)-7-(4-(5-fluoro-2-((3-methyloxetan-3-yl)methoxy)phenyl)piperidin-1-yl)-2-(1,3,4-oxadiazol-2-yl)-5-oxa-2-azaspiro[3.4]octane]
- EC50 [1]: 498 nM
- Emax [1]: 47%
- Emax [2]: 0%
- EC50 [2]: > 25000 nM

SMILES: Fc1ccc(OC2CC3(COC3)C2)c(C2CCN([C@H]3COC4(C3)CN(c3nnco3)C4)CC2)c1 [Example 7A, (R)-7-(4-(2-((2-oxaspiro[3.3]heptan-6-yl)oxy)-5-fluorophenyl)piperidin-1-yl)-2-(1,3,4-oxadiazol-2-yl)-5-oxa-2-azaspiro[3.4]octane]
- EC50 [1]: > 25000 nM
- Emax [1]: 0%
- Emax [2]: 0%
- EC50 [2]: > 25000 nM

SMILES: CC(C)(O)CCOc1ccc(F)cc1C1CCN([C@@H]2COC3(C2)CN(c2nnco2)C3)CC1 [Example 1N, (S)-4-(2-(1-(2-(1,3,4-oxadiazol-2-yl)-5-oxa-2-azaspiro[3.4]octan-7-yl)piperidin-4-yl)-4-fluorophenoxy)-2-methylbutan-2-ol]
- EC50 [1]: > 25000 nM
- Emax [1]: 0%
- Emax [2]: 0%
- EC50 [2]: > 25000 nM

SMILES: Fc1ccc(OCC2CCOCC2)c(C2CCN([C@@H]3COC4(C3)CN(c3nnco3)C4)CC2)c1 [Example 1J, (S)-7-(4-(5-fluoro-2-((tetrahydro-2H-pyran-4-yl)methoxy)phenyl)piperidin-1-yl)-2-(1,3,4-oxadiazol-2-yl)-5-oxa-2-azaspiro[3.4]octane]
- EC50 [1]: 874 nM
- Emax [1]: 35%
- Emax [2]: 0%
- EC50 [2]: > 25000 nM

SMILES: Cc1nnc(COc2ccc(F)cc2C2CCN([C@@H]3COC4(C3)CN(c3nnco3)C4)CC2)s1 [Example 2E, (S)-7-(4-(5-fluoro-2-((5-methyl-1,3,4-thiadiazol-2-yl)methoxy)phenyl)piperidin-1-yl)-2-(1,3,4-oxadiazol-2-yl)-5-oxa-2-azaspiro[3.4]octane]
- EC50 [1]: 81 nM
- Emax [1]: 59%
- Emax [2]: 23%
- EC50 [2]: 1670 nM

SMILES: Fc1ccc(OC2CC3(COC3)C2)c(C2CCN([C@@H]3COC4(C3)CN(c3ncon3)C4)CC2)c1 [Example 6C, (S)-7-(4-(2-((2-oxaspiro[3.3]heptan-6-yl)oxy)-5-fluorophenyl)piperidin-1-yl)-2-(1,2,4-oxadiazol-3-yl)-5-oxa-2-azaspiro[3.4]octane]
- EC50 [1]: 1510 nM
- Emax [1]: 18%
- Emax [2]: 0%
- EC50 [2]: > 25000 nM

SMILES: Fc1ccc(OC2CC3(COC3)C2)c(C2CCN([C@@H]3COC4(C3)CN(c3nnco3)C4)CC2)c1 [Example 2L, (S)-7-(4-(2-((2-oxaspiro[3.3]heptan-6-yl)oxy)-5-fluorophenyl)piperidin-1-yl)-2-(1,3,4-oxadiazol-2-yl)-5-oxa-2-azaspiro[3.4]octane]
- EC50 [1]: 1070 nM
- Emax [1]: 14%
- Emax [2]: 0%
- EC50 [2]: > 25000 nM

SMILES: Fc1ccc(OC2COCOC2)c(C2CCN([C@@H]3COC4(C3)CN(c3nnco3)C4)CC2)c1 [Example 1M, (S)-7-(4-(2-((1,3-dioxan-5-yl)oxy)-5-fluorophenyl)piperidin-1-yl)-2-(1,3,4-oxadiazol-2-yl)-5-oxa-2-azaspiro[3.4]octane]
- EC50 [1]: 752 nM
- Emax [1]: 23%
- Emax [2]: 0%
- EC50 [2]: > 25000 nM

SMILES: Fc1ccc(OC2CCOCC2)c(C2CCN([C@@H]3COC4(C3)CN(c3ncon3)C4)CC2)c1 [Example 6A, (S)-7-(4-(5-fluoro-2-((tetrahydro-2H-pyran-4-yl)oxy)phenyl)piperidin-1-yl)-2-(1,2,4-oxadiazol-3-yl)-5-oxa-2-azaspiro[3.4]octane]
- EC50 [1]: 623 nM
- Emax [1]: 18%
- Emax [2]: 0%
- EC50 [2]: > 25000 nM

SMILES: COCCOc1ccc(F)cc1C1CCN([C@@H]2COC3(C2)CN(c2nnco2)C3)CC1 [Example 1L, (S)-7-(4-(5-fluoro-2-(2-methoxyethoxy)phenyl)piperidin-1-yl)-2-(1,3,4-oxadiazol-2-yl)-5-oxa-2-azaspiro[3.4]octane]
- EC50 [1]: > 25000 nM
- Emax [1]: 0%
- Emax [2]: 0%
- EC50 [2]: > 25000 nM

SMILES: Fc1ccc(OC[C@H]2CCCO2)c(C2CCN([C@@H]3COC4(C3)CN(c3nnco3)C4)CC2)c1 [Example 2M, (S)-7-(4-(5-fluoro-2-(((R)-tetrahydrofuran-2-yl)methoxy)phenyl)piperidin-1-yl)-2-(1,3,4-oxadiazol-2-yl)-5-oxa-2-azaspiro[3.4]octane]
- EC50 [1]: 2030 nM
- Emax [1]: 20%
- Emax [2]: 0%
- EC50 [2]: > 25000 nM

SMILES: Fc1ccc(OCC2COC2)c(C2CCN([C@@H]3COC4(C3)CN(c3nncs3)C4)CC2)c1 [Example 2A, (S)-7-(4-(5-fluoro-2-(oxetan-3-ylmethoxy)phenyl)piperidin-1-yl)-2-(1,3,4-thiadiazol-2-yl)-5-oxa-2-azaspiro[3.4]octane]
- EC50 [1]: 520 nM
- Emax [1]: 46%
- Emax [2]: 0%
- EC50 [2]: > 25000 nM

SMILES: Fc1ccc(OCC2CC3(COC3)C2)c(C2CCN([C@@H]3COC4(C3)CN(c3nnco3)C4)CC2)c1 [Example 2S, (S)-7-(4-(2-((2-oxaspiro[3.3]heptan-6-yl)methoxy)-5-fluorophenyl)piperidin-1-yl)-2-(1,3,4-oxadiazol-2-yl)-5-oxa-2-azaspiro[3.4]octane]
- EC50 [1]: 2180 nM
- Emax [1]: 29%
- Emax [2]: 0%
- EC50 [2]: > 25000 nM

SMILES: c1ccc(C2CCN([C@@H]3COC4(C3)CN(c3nnco3)C4)CC2)c(-c2ncco2)c1 [Example 1X, (S)-2-(1,3,4-oxadiazol-2-yl)-7-(4-(2-(oxazol-2-yl)phenyl)piperidin-1-yl)-5-oxa-2-azaspiro[3.4]octane]
- EC50 [1]: 2480 nM
- Emax [1]: 25%
- Emax [2]: 0%
- EC50 [2]: > 25000 nM
